Experimental data taken from ChEMBL document CHEMBL1155621, “Asitrocin, (2,4)-cis- and trans-asitrocinones: novel bioactive mono-tetrahydrofuran acetogenins from Asimina triloba seeds” (J Nat Prod, 2000).
Values after ≈ are worked out from the molar mass of the structure shown.

What was measured:
A498 = assay: Cytotoxicity against human A498 cells after 7 days by MTT assay; type: functional; details: A498, 168 h, read-out: ED50 (the source's name)
MIA PaCa-2 = assay: Cytotoxicity against human MiaPaCa2 cells after 7 days by MTT assay; type: functional; details: MIA PaCa-2, 168 h, read-out: ED50 (the source's name)
A549 = assay: Cytotoxicity against human A549 cells after 7 days by MTT assay; type: functional; details: A549, 168 h, read-out: ED50 (the source's name)
PC-3 = assay: Cytotoxicity against human PC3 cells after 7 days by MTT assay; type: functional; details: PC-3, 168 h, read-out: ED50 (the source's name)
MCF7 = assay: Cytotoxicity against human MCF7 cells after 7 days by MTT assay; type: functional; details: MCF7, 168 h, read-out: ED50 (the source's name)
HT-29 = assay: Cytotoxicity against human HT29 cells after 7 days by MTT assay; type: functional; details: HT-29, 168 h, read-out: ED50 (the source's name)
[1] = Toxicity in brine shrimp; type: organism-based; details: artemia, in vivo

CCCCCCCCCCCC[C@@H](O)[C@H]1CC[C@H]([C@@H](O)CC[C@H](O)CCCCCCC[C@@H](O)CC2=C[C@H](C)OC2=O)O1 [ASITROCIN] showed an EC50 (A498) of 79.2 ng/mL (≈ 133 nM), an EC50 (MIA PaCa-2) of 0.0148 ng/mL (≈ 0.0248 nM) and an EC50 (A549) of 118 ng/mL (≈ 198 nM). For the same compound, the EC50 (PC-3) was 1.22 ng/mL (≈ 2.04 nM), the EC50 (MCF7) was 3280 ng/mL (≈ 5500 nM) and the EC50 (HT-29) was 2.99 ng/mL (≈ 5.01 nM). The LC50 [1] was 63 ng/mL (≈ 106 nM).

In the case of COc1cccc2c1C(=O)c1c(O)c3c(c(O)c1C2=O)C[C@@](O)(C(=O)CO)C[C@@H]3O[C@H]1C[C@H](N)[C@H](O)[C@H](C)O1 [DOXORUBICIN], the EC50 (MIA PaCa-2) is reported as 6.1 ng/mL (≈ 11.2 nM).
